These molecules were tested on human bronchial epithelial cells, CFTR corrector, plate reader (assay: CFTR ΔF508 corrector activity in bronchial cells, dose response, human bronchial epithelial cells, plate reader, cherry-pick, two tests (AID 743267)). Conditions: measured here: test 1 replicate run.
`C[C@@H]1CN([C@H](C)CO)S(=O)(=O)c2ccc(-c3ccccc3)cc2O[C@H]1CN(C)Cc1ccccn1` gave an AC50 of 16 µM. `C[C@@H]1CN([C@H](C)CO)S(=O)(=O)c2ccc(C#CC3CC3)cc2O[C@H]1CN(C)Cc1ccccn1` showed an AC50 of 11.8 µM. Work on `COc1cccc(-c2ccc(C3[C@@H]4CN(S(=O)(=O)c5cccc(OC)c5)C[C@H]3N4)cc2)c1` (stereo not given in full) yielded an AC50 of 13.5 µM. Work on `CS(=O)(=O)N1CC(=O)N2[C@H](C1)[C@H](c1ccc(C#Cc3ccc(F)cc3)cc1)[C@@H]2CO` yielded an AC50 of 23.9 µM. For `C[C@H]1CN([C@@H](C)CO)S(=O)(=O)c2ccc(-c3ccc(C#N)cc3)cc2O[C@@H]1CN(C)Cc1ccccn1`, the AC50 was 3.39 µM. Work on `CN1c2ccc(-c3ccc(C#N)cc3)cc2[C@H]2[C@H](CCN2S(=O)(=O)c2cccc(F)c2)[C@@H]1CO` yielded an AC50 of 16 µM. In the case of `COc1ccc(S(=O)(=O)Nc2ccc3c(c2)C(=O)N([C@H](C)CO)C[C@@H](C)[C@@H](CN(C)Cc2ccc(C(F)(F)F)cc2)O3)cc1`, the AC50 is reported as > 50 µM. With `COc1ccc(S(=O)(=O)N2CC[C@@H]3[C@@H](CO)N(C)c4ccc(-c5ccc(F)cc5)cc4[C@@H]32)cc1` the AC50 was 13 µM.

Same assay, conditions: measured here: test 2 replicate run
`COC(=O)c1[nH]c2c(c1C)C(=O)CC(c1cccc(OC)c1)C2` (stereo not given) gave an AC50 of 0.965 µM. `CC1=NCCc2c1[nH]c1cc(O)ccc21` gave an AC50 of 41.4 µM. `CC(=NNC(=S)Nc1ccc(C)cc1)c1ccccn1` was tested, and the AC50 was 0.499 µM. `NS(=O)(=O)c1cc(Cl)c(Cl)c(S(N)(=O)=O)c1` gave an AC50 of 0.0468 µM. `COc1cc(C#Cc2ccc3cc(CCCO)oc(=O)c3c2)cc(OC)c1` showed an AC50 of 10.3 µM. `NS(=O)(=O)c1ccc(NNC(=O)c2ccc(Br)o2)c([N+](=O)[O-])c1` was tested, and the AC50 was 8.91 µM. `Cc1cccc(N(C)C(=O)c2cc3c(=O)[nH]c4ccc(C)cc4c3s2)c1` showed an AC50 of 4.72 µM. In the case of `Cc1cc(C(=O)N/N=C/c2ccc(N(C)C)cc2)c2ccccc2n1`, the AC50 is reported as 5.44 µM. `CN(CCOc1ccc(Cl)cc1)C(=O)c1cccc(S(=O)(=O)N2CCN(c3ccccc3)CC2)c1` showed an AC50 of 16 µM. `O=C(O)CCCCCCCCc1cn(Cc2ccc(C(=O)c3ccccc3)cc2)nn1` was tested, and the AC50 was 2.17 µM. `CCN(CC)c1ccc2c(cc1=O)[C@@H](NC)CCc1cc(OC)c(OC)c(OC)c1-2` was tested, and the AC50 was 1.31 µM. In the case of `Cc1ccc(S(=O)(=O)N(Cc2cc3ccccc3[nH]c2=O)c2cccc(C)c2)cc1`, the AC50 is reported as 8.17 µM. With `CN(C)CCNc1ccc2ncn3c4ccc(O)cc4c(=O)c1c23` the AC50 was 2.03 µM. For `CC1(C)Cc2c(c(-c3ccco3)nc3sc4c(NCCN5CCOCC5)ncnc4c23)CO1`, the AC50 was 3.92 µM. In the case of `CN[C@H]1CCc2cc(OC)c(OC)c(OC)c2-c2ccc(N(C)CC(OC)OC)c(=O)cc21`, the AC50 is reported as 3.25 µM. `CCN(CC)CCn1nc2c3c(cccc3c1=O)-c1ccccc1-2` was tested, and the AC50 was 1.1 µM. For `O=C(CN(Cc1ccco1)Cc1ccco1)Nc1cc(S(=O)(=O)N2CCCCC2)ccc1Cl`, the AC50 was 17.2 µM. With `COCCNC(=O)NC12CC3(C)CC(C)(CC(C)(C3)C1)C2` the AC50 was > 50 µM. With `Cc1ccc(-c2csc3ncn(CC#N)c(=O)c23)cc1C` the AC50 was 35.7 µM. `COc1ccc(S(=O)(=O)N(C(=O)C(C)C)c2ccc3oc(=O)sc3c2)cc1` was tested, and the AC50 was 7.6 µM. In the case of `NC1(C(=O)O)CC1`, the AC50 is reported as > 50 µM. Work on `COc1cc(OC)cc(C(=O)N[C@H](C(=O)Nc2nc3ccccc3[nH]2)C(C)C)c1` yielded an AC50 of 2.34 µM. `O=C(N/N=C/c1ccccc1OC(F)F)c1cc(-c2ccncc2)nc2ccccc12` showed an AC50 of 0.798 µM. Molecule `CCOc1ccccc1N1CCN(C(=O)c2cc3ccccc3cc2OC)CC1` has an AC50 of 3.45 µM. With `O=C(NCCN1C(=O)S/C(=C\c2ccc(OC(F)F)cc2)C1=O)c1cnccn1` the AC50 was 1.85 µM. `COc1ccc(/C(C)=N/NC(=O)c2cccc(S(=O)(=O)N3CCCC3)c2)c(O)c1` was tested, and the AC50 was > 50 µM. Molecule `Cc1ccc2c(CN3CCN(S(=O)(=O)c4ccc(Cl)cc4)CC3)cc(=O)oc2c1C` has an AC50 of 11.6 µM. `COCCOC(=O)c1[nH]c2c(c1C)C(=O)CC(c1cccs1)C2` (stereo not given) was tested, and the AC50 was 4.16 µM. With `CCCCC(=NCCc1c(C)[nH]c2ccccc12)C1=C(O)CC(c2ccccc2)CC1=O` (stereo not given) the AC50 was 3.92 µM. `COc1cccc(N=Nc2ccc3cccnc3c2O)c1` was tested, and the AC50 was > 50 µM. With `CC[N+]1(CC)CC2=Cc3ccccc3CC2C1` (stereo not given) the AC50 was 27.8 µM. With `O=C(NC(=S)Nc1ccc(-c2ccccc2)cc1)c1ccccc1` the AC50 was > 50 µM. For `O=[N+]([O-])c1ccc(/C=C/C2=NN(c3ccccc3)C(c3ccco3)C2)o1` (stereo not given), the AC50 was 18.1 µM. With `Cn1c(=O)c(NC2CCCCC2)c2c3c(cccc31)C(=O)c1ccccc1-2` the AC50 was 8.48 µM. For `O=C1NC(=O)C(=Cc2ccc(N3CCOCC3)o2)C(=O)N1`, the AC50 was > 50 µM. Work on `CCN(CC)c1ccc(/C=N/NC(=O)c2cnccn2)cc1` yielded an AC50 of 2.12 µM. `COc1ccccc1N1CC(C(=O)Nc2ccc(S(=O)(=O)N3CCCC3)cc2)CC1=O` (stereo not given) was tested, and the AC50 was 10.6 µM. In the case of `CCOc1ccc(NC(=O)c2cc(OC)nc3ccccc23)cc1`, the AC50 is reported as 1.7 µM. `C=CCn1c(SCC(=O)N(C)C2CCS(=O)(=O)C2)nc2ccccc2c1=O` (stereo not given) gave an AC50 of 26.7 µM. `CN(C)CCCNc1c2ccccc2nc2ccccc12` was tested, and the AC50 was 0.879 µM. With `COC(=O)c1ccc(/C=C/c2c(-c3ccc(OC)cc3)oc3ccc(N4CCOCC4)cc23)cc1` the AC50 was 16 µM. `COC(=O)/C=C/c1ccccc1S(=O)(=O)N(Cc1ccccc1)Cc1ccco1` gave an AC50 of 3.04 µM. `COc1cc(OC)cc(C(=O)c2c(C)c(C#N)c3ccccn23)c1` showed an AC50 of 1.8 µM. `CC(=O)Nc1sc2c(c1-c1nc3ccccc3s1)CN(C(C)C)CC2` was tested, and the AC50 was 1.43 µM. Molecule `O=C1CCC(CCc2nc3ccccc3[nH]2)(c2ccccc2)C(=O)N1` (stereo not given) has an AC50 of 36.3 µM. Molecule `COc1ccc(C(=O)OCC(=O)N2C(C)CCCC2C)cc1S(=O)(=O)N1CCOCC1` (stereo not given) has an AC50 of 29.6 µM. `O=Nc1ccc(O)c2ncccc12` gave an AC50 of 3.57 µM.
